Experimental data: ChEMBL document CHEMBL4673291, “Synthesis and antiproliferative evaluation of novel 8-cyclopentyl-7,8-dihydropteridin-6(5H)-one derivatives as potential anticancer agents” (Bioorg Med Chem Lett, 2021)

Assays:
[1] = test system: HEK293; assay: Cytotoxicity against HEK293 cells assessed as inhibition of cell proliferation measured after 48 hrs by MTT assay; format: cell-based; conditions: Homo sapiens, HEK293, 48 h
[2] = test system: HT-29; assay: Antiproliferative activity against human HT-29 cells assessed as inhibition of cell proliferation measured after 48 hrs by MTT assay; format: functional, cell-based; conditions: HT-29, 48 h
[3] = test system: MDA-MB-231; assay: Antiproliferative activity against human MDA-MB-231 cells assessed as inhibition of cell proliferation measured after 48 hrs by MTT assay; format: functional, cell-based; conditions: MDA-MB-231, 48 h
[4] = test system: HeLa; assay: Antiproliferative activity against human HeLa cells assessed as inhibition of cell proliferation measured after 48 hrs by MTT assay; format: functional, cell-based
[5] = test system: HCT-116; assay: Antiproliferative activity against human HCT-116 cells assessed as inhibition of cell proliferation measured after 48 hrs by MTT assay; format: functional, cell-based; conditions: HCT-116, 48 h
[6] = test system: HeLa; assay: Cell cycle arrest in human HeLa cells assessed as accumulation at G1/G0 phase at 12 uM measured after 24 hrs by flow cytometry analysis (reference value: 67.34 %); format: functional
[7] = test system: HeLa; assay: Cell cycle arrest in human HeLa cells assessed as accumulation at G2/M phase measured after 24 hrs by flow cytometry analysis; format: functional, cell-based; conditions: dose 3-12 µM
[8] = test system: HeLa; assay: Cell cycle arrest in human HeLa cells assessed as accumulation at G1/G0 phase at 3 uM measured after 24 hrs by flow cytometry analysis (reference value: 67.34 %); format: functional
[9] = test system: HeLa; assay: Cell cycle arrest in human HeLa cells assessed as accumulation at G2/M phase at 6 uM measured after 24 hrs by flow cytometry analysis (reference value: 15.22 %); format: functional
[10] = test system: HeLa; assay: Cell cycle arrest in human HeLa cells assessed as accumulation at G2/M phase at 3 uM measured after 24 hrs by flow cytometry analysis (reference value: 15.22 %); format: functional
[11] = test system: HeLa; assay: Cell cycle arrest in human HeLa cells assessed as accumulation at S phase at 3 uM measured after 24 hrs by flow cytometry analysis (reference value: 17.44 %); format: functional
[12] = test system: HeLa; assay: Cell cycle arrest in human HeLa cells assessed as accumulation at S phase at 12 uM measured after 24 hrs by flow cytometry analysis (reference value: 17.44 %); format: functional
[13] = test system: HeLa; assay: Cell cycle arrest in human HeLa cells assessed as accumulation at S phase at 6 uM measured after 24 hrs by flow cytometry analysis (reference value: 17.44 %); format: functional
[14] = test system: HeLa; assay: Cell cycle arrest in human HeLa cells assessed as accumulation at G1/G0 phase at 6 uM measured after 24 hrs by flow cytometry analysis (reference value: 67.34 %); format: functional
[15] = test system: HeLa; assay: Cell cycle arrest in human HeLa cells assessed as accumulation at G2/M phase at 12 uM measured after 24 hrs by flow cytometry analysis (reference value: 15.22 %); format: functional

IC50 [2] [µM]	IC50 [3] [µM]	IC50 [4] [µM]	IC50 [5] [µM]	Compound	IC50 [1] [µM]	further results
5.54	25	> 30	4.44	O=C1CN(C2CCCC2)c2nc(Nc3ccc(N4CCCCC4)cc3)ncc2N1	25.1	
21.1	> 30	> 30	> 30	O=C1CN(C2CCCC2)c2nc(Nc3ccc(N4CCCCC4)cn3)ncc2N1		
5.04	22.7	> 30	8.43	CC1CCN(c2ccc(Nc3ncc4c(n3)N(C3CCCC3)CC(=O)N4)cc2)CC1		
> 30	> 30	> 30	> 30	CC1CCN(c2ccc(Nc3ncc4c(n3)N(C3CCCC3)CC(=O)N4)nc2)CC1		
28.4	> 30	> 30	23.6	CN1C(=O)CN(C2CCCC2)c2nc(Nc3ccc(N4CCOCC4)cn3)ncc21		
22.8	25.1	26	9.5	O=C1CN(C2CCCC2)c2nc(Nc3ccc(N4CCOCC4)cc3)ncc2N1	> 30	
12.5	29.3	> 30	3.89	CN1C(=O)CN(C2CCCC2)c2nc(Nc3ccc(N4CCCCC4)cn3)ncc21	> 30	
26.5	> 30	> 30	> 30	CN1CCN(c2ccc(Nc3ncc4c(n3)N(C3CCCC3)CC(=O)N4)nc2)CC1		
5.22	26.1	21.3	12.2	CN1CCN(c2ccc(Nc3ncc4c(n3)N(C3CCCC3)CC(=O)N4)cc2)CC1	> 30	
22	> 30	> 30	25.3	O=C1CN(C2CCCC2)c2nc(Nc3ccc(N4CCOCC4)cn3)ncc2N1		
> 30	> 30	> 30	> 30	O=C1CN(C2CCCC2)c2nc(Nc3ccc(N4CCNCC4)cn3)ncc2N1		

The remaining lines, values behind:

Compound	IC50 [2] [µM]	IC50 [3] [µM]	IC50 [4] [µM]	IC50 [5] [µM]	IC50 [1] [µM]	further results
CCN1C(=O)CN(C2CCCC2)c2nc(Nc3ccc(N4CCCCC4)cn3)ncc21	22	28.2	17.6	14.5	> 30	
CCN1C(=O)CN(C2CCCC2)c2nc(Nc3ccc(N4CCC(C)CC4)cn3)ncc21	> 30	> 30	> 30	19.1		
CCN1C(=O)CN(C2CCCC2)c2nc(Nc3ccc(N4CCC(C)CC4)cc3)ncc21	24.4	> 30	> 30	5.4	> 30	
CCN1C(=O)CN(C2CCCC2)c2nc(Nc3ccc(N4CCN(C)CC4)cc3)ncc21	10.3	26.2	28.3	7.96	> 30	
CC1CCN(c2ccc(Nc3ncc4c(n3)N(C3CCCC3)CC(=O)N4C)nc2)CC1	11.3	> 30	> 30	> 30		
CCN1C(=O)CN(C2CCCC2)c2nc(Nc3ccc(N4CCN(C)CC4)cn3)ncc21	7.84	24.1	29.1	16.4	> 30	
COc1ccc(Nc2ncc3c(n2)N(C2CCCC2)CC(=O)N3C)cc1		> 30		12.3		
CN1CCN(c2ccc(Nc3ncc4c(n3)N(C3CCCC3)CC(=O)N4C)nc2)CC1	11.1	23.7	13.1	9.73		
CN1CCN(c2ccc(Nc3ncc4c(n3)N(C3CCCC3)CC(=O)N4C)cc2)CC1	7.56	10.3	6.75	3.29	12.4	Activity [6]: 11.03%; Activity [7]: Dose-dependent effect; Activity [8]: 64.43%; Activity [9]: 48.98%; Activity [10]: 20.97%; Activity [11]: 14.6%; Activity [12]: 0%; Activity [13]: 3.9%; Activity [14]: 47.11%; Activity [15]: 88.97%
CC(=O)c1c(C)c2cnc(Nc3ccc(N4CCNCC4)cn3)nc2n(C2CCCC2)c1=O [PALBOCICLIB]	3.56	6.21	13.3	7.11		
CCN1C(=O)CN(C2CCCC2)c2nc(Nc3ccc(N4CCCCC4)cc3)ncc21	> 30	> 30	> 30	5.47	> 30	
COc1ccc(Nc2ncc3c(n2)N(C2CCCC2)CC(=O)N3)cc1		> 30		> 30		
CN1C(=O)CN(C2CCCC2)c2nc(Nc3ccc(N4CCCCC4)cc3)ncc21	9.86	21.2	16.9	6.1	25.3	
CC1CCN(c2ccc(Nc3ncc4c(n3)N(C3CCCC3)CC(=O)N4C)cc2)CC1	> 30	> 30	> 30	25.3		
CCN1C(=O)CN(C2CCCC2)c2nc(Nc3ccc(N4CCOCC4)cn3)ncc21	27.6	> 30	> 30	> 30		
CN1C(=O)CN(C2CCCC2)c2nc(Nc3ccc(N4CCOCC4)cc3)ncc21	20.1	> 30	> 30	> 30		
CCN1C(=O)CN(C2CCCC2)c2nc(Nc3ccc(N4CCOCC4)cc3)ncc21	> 30	> 30	> 30	9.05		
CCN1C(=O)CN(C2CCCC2)c2nc(Nc3ccc(OC)cc3)ncc21		> 30		11		
O=C1CN(Cc2ccccc2)c2nc(NCCc3ccccc3)ncc2N1	> 30		20.7	25.4	> 30	
